Earlier results in US20040166503A1, “Methods for gene expression profiling” (priority 2004, published 2004).

Columns and labels:
[1] = system: resistant HL60 human promyelocytic cell line; details: inhibition of glutathione synthesis by BSO
[2] = system: cancer cell lines and tumors; details: wide variety of cancer cell lines and tumors
[3] = system: M7609 xenografts expressing different levels of GST P1-1; details: murine xenografts of M7609; responses positively correlated with GST P1-1 expression
[4] = system: bone marrow stem cells and peripheral white blood cell
[5] = system: c-Jun N-terminal kinase (JNK); details: during TLK286 induced apoptosis
[6] = system: extracellular signal-regulated kinase (ERK); details: during TLK286 induced apoptosis
p38 kinase = details: during TLK286 induced apoptosis

Row | Compound | effect on sensitivity of resistant cells to TLK286 [1] | cytotoxicity [2] | antitumor activity in vivo [3] | myelosuppressive effect (toxicity) [4] | JNK activation [5] | ERK activation [6] | p38 kinase activation (p38 kinase)
1 | CCCCS(=N)(=O)CCC(N)C(=O)O (stereo not shown) [BSO] | increases the sensitivity |  |  |  |  |  | 
2 | N[C@@H](CCC(=O)N[C@@H](CS(=O)(=O)CCOP(=O)(N(CCCl)CCCl)N(CCCl)CCCl)C(=O)N[C@@H](C(=O)O)c1ccccc1)C(=O)O [TLK286, gamma-glutamyl-alpha-amino-beta(2-ethyl-N,N,N′,N-tetrakis(2-chloroethyl)phosphorodiamidate)-sulfonyl-propionyl-(R)-(−)phenylglycine] |  | cytotoxic | antitumor activity has also been observed | only mildly toxic | activated | not | not
